Results from patent publication US9150566B2, “2-(1,2,3-triazol-2-yl)benzamide and 3-(1,2,3-triazol-2-YL)picolinamide derivatives as orexin receptor antagonists” (ACTELION PHARMACEUTICALS LTD., priority 2011, dated 2015).
Read-outs that look alike come from different tables or passages of the source.

Tests used:
human orexin-1 receptor = human orexin-1 receptor (Homo sapiens (Human), UniProt O43613); assay: In vitro intracellular calcium measurements (FLIPR), antagonistic activity on orexin-1 receptor; format: cell-based; settings: read-out: IC50 OX1
How it was run: (§1)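 Recombinant CHO lines bearing human OX1 or OX2 receptors received test antagonist 120 min before agonist addition.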

human orexin-2 receptor = human orexin-2 receptor (Homo sapiens (Human), UniProt O43614); assay: In vitro intracellular calcium measurements (FLIPR), antagonistic activity on orexin-2 receptor; format: cell-based; settings: read-out: IC50 OX2
How it was run: as §1

CYP3A4 = CYP3A4 (Homo sapiens (Human), UniProt P08684); assay: CYP3A4 inhibition assay (human liver microsomes, testosterone 6β-hydroxylation); settings: read-out: CYP3A4 IC50, 40 μM testosterone
Description: The CYP3A4 inhibition assay was performed using human liver microsomes and testosterone 6β-hydroxylation as a P450 isoform-specific marker. In a total volume of 150 μL, ^14C-testosterone at a final concentration of 40 μM in a 100 mM phosphate buffer (pH 7.4) was incubated in a 96-well plate with 0.3 mg/mL of human liver microsomes in an Eppendorf thermomixer at 37° C. and 400 rpm. […] The reaction was initiated by addition of 15 μL of the NADPH-regenerating system containing the glucose-6-phosphate dehydrogenase and terminated after 7 min with a 75 μL-aliquot of methanol. After centrifugation at 465 g and 4° C. for 20 min, a 50 μL-aliquot of the supernatant was submitted to HPLC according to the method described below. The total concentration of DMSO in the assay including controls without inhibitor was 1%.
Nicardipine was run in parallel as a reference inhibitor of CYP3A4 activity at final concentrations of 0, 0.1, 0.5, 1.0, 5.0, 10, 25, and 50 μM. Stock solutions thereof were prepared in DMSO.
The chromatographic separation of testosterone and 6β-hydroxytestosterone was achieved on a Phenomenex Luna C18(2) column (5 μm, 2.0×10 mm) at RT with a flow rate of 0.6 mL/min. Mobile phases consisted of 1% aqueous formic acid (phase A) and methanol (phase B) using a gradient method with 0.9 min total run time.
The quantification of 6β-hydroxytestosterone was carried out using a quadrupole mass spectrometer equipped with an ionspray interface operating in positive ion mode. The parameters of the mass detector were set as follows: capillary voltage 5 kV, auxiliary gas 40 psi, collision gas 3 mTorr, and transfer capillary temperature 420° C.

[1] = CHO cells expressing human orexin-2 receptor, FLIPR, 3 nM orexin-A agonist, 120 min antagonist incubation, geometric mean if determined several times
[2] = CHO cells expressing human orexin-1 receptor, FLIPR, 3 nM orexin-A agonist, 120 min antagonist incubation, geometric mean if determined several times

Sequence of CYP3A4 (P08684 whole entry): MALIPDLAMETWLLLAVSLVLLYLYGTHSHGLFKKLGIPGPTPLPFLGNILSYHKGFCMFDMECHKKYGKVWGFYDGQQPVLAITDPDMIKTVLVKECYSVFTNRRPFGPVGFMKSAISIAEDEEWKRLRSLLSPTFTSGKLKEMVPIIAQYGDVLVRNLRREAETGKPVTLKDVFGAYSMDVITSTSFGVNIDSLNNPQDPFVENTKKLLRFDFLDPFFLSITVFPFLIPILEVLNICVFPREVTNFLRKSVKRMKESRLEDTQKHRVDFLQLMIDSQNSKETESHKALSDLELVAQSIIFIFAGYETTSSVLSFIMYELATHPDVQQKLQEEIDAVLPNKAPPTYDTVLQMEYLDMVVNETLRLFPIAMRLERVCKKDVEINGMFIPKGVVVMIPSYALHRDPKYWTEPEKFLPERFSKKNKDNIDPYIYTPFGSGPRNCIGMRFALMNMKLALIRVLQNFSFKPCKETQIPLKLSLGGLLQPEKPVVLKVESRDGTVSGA
Sequence of human orexin-1 receptor (O43613 whole entry): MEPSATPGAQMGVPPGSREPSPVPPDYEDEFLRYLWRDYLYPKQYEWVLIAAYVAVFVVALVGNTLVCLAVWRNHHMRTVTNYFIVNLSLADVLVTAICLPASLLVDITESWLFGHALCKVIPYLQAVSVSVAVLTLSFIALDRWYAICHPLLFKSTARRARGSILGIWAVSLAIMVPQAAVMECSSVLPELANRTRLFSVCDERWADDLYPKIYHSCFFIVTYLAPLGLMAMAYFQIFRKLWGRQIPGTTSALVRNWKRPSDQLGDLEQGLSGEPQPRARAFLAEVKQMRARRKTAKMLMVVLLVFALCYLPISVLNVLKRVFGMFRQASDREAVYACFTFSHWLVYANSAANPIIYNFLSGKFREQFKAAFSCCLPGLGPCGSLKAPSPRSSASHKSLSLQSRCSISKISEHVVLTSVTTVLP
Sequence of human orexin-2 receptor (O43614 whole entry): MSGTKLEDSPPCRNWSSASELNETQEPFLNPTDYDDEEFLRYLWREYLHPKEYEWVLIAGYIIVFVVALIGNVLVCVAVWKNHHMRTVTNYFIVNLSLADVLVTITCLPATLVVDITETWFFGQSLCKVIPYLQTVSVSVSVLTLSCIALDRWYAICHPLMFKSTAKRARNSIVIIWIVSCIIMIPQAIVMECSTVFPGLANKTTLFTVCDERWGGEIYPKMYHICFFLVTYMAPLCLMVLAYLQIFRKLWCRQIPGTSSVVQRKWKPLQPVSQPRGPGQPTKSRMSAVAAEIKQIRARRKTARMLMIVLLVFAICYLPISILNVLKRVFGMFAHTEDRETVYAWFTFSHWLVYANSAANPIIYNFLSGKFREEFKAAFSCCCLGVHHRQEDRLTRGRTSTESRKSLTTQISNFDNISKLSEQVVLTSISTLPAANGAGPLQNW

Row | Compound | IC50 (human orexin-1 receptor) | IC50 (human orexin-2 receptor; [1]) | IC50 (CYP3A4) | IC50 (human orexin-1 receptor; [2]) | IC50 (human orexin-2 receptor)
1 | Cc1ccc(C(=O)N2CCOC[C@H]2Cc2cc(Cl)cc(-n3nccn3)c2)c(-n2nccn2)c1 [Example 105, [(R)-3-(3-Chloro-5-[1,2,3]triazol-2-yl-benzyl)-morpholin-4-yl]-(4-methyl-2-[1,2,3]triazol-2-yl-phenyl)-methanone] | 2 nM | 101 nM | 21000 nM | – | –
2 | Cc1cccc(C(=O)N2CCOC[C@H]2Cc2cc(Cl)cc(-n3nccn3)c2)c1-n1nccn1 [Example 106, [(R)-3-(3-Chloro-5-[1,2,3]triazol-2-yl-benzyl)-morpholin-4-yl]-(3-methyl-2-[1,2,3]triazol-2-yl-phenyl)-methanone] | – | 335 nM | 14000 nM | 3 nM | –
3 | O=C(c1cccc(Cl)c1-n1nccn1)N1CCOC[C@H]1Cc1cccc(-n2nccn2)c1 [Example 107, (3-Chloro-2-[1,2,3]triazol-2-yl-phenyl)-[(R)-3-(3-[1,2,3]triazol-2-yl-benzyl)-morpholin-4-yl]-methanone] | – | 435 nM | 22000 nM | 5 nM | –
4 | C[C@@H]1CN(C(=O)c2ccccc2-n2nccn2)[C@H](Cc2cccc(-c3ncccn3)c2)CO1 [Example 108, [(2R,5R)-2-Methyl-5-(3-pyrimidin-2-yl-benzyl)-morpholin-4-yl]-(2-[1,2,3]triazol-2-yl-phenyl)-methanone] | – | 855 nM | 46000 nM | 10 nM | –
5 | Cc1ccc(-n2nccn2)c(C(=O)N2C[C@@H](C)OC[C@H]2Cc2cccc(-c3ncccn3)c2)c1 [Example 109, [(2R,5R)-2-Methyl-5-(3-pyrimidin-2-yl-benzyl)-morpholin-4-yl]-(5-methyl-2-[1,2,3]triazol-2-yl-phenyl)-methanone] | – | 105 nM | 43000 nM | 1 nM | –
6 | Cc1ccc(C(=O)N2C[C@@H](C)OC[C@H]2Cc2cccc(-c3ncccn3)c2)c(-n2nccn2)c1 [Example 110, [(2R,5R)-2-Methyl-5-(3-pyrimidin-2-yl-benzyl)-morpholin-4-yl]-(4-methyl-2-[1,2,3]triazol-2-yl-phenyl)-methanone] | – | 176 nM | > 50000 nM | 2 nM | –
7 | Cc1cccc(C(=O)N2C[C@@H](C)OC[C@H]2Cc2cccc(-c3ncccn3)c2)c1-n1nccn1 [Example 111, [(2R,5R)-2-Methyl-5-(3-pyrimidin-2-yl-benzyl)-morpholin-4-yl]-(3-methyl-2-[1,2,3]triazol-2-yl-phenyl)-methanone] | – | 983 nM | 40000 nM | 7 nM | –
8 | C[C@@H]1CN(C(=O)c2cc(Cl)ccc2-n2nccn2)[C@H](Cc2cccc(-c3ncccn3)c2)CO1 [Example 113, (5-Chloro-2-[1,2,3]triazol-2-yl-phenyl)-[(2R,5R)-2-methyl-5-(3-pyrimidin-2-yl-benzyl)-morpholin-4-yl]-methanone] | – | 110 nM | 26000 nM | 2 nM | –
9 | C[C@@H]1CN(C(=O)c2ccc(Cl)cc2-n2nccn2)[C@H](Cc2cccc(-c3ncccn3)c2)CO1 [Example 114, (4-Chloro-2-[1,2,3]triazol-2-yl-phenyl)-[(2R,5R)-2-methyl-5-(3-pyrimidin-2-yl-benzyl)-morpholin-4-yl]-methanone] | – | 83 nM | 35000 nM | 1 nM | –
10 | Cc1ccc(-n2nccn2)c(C(=O)N2C[C@@H](C)OC[C@H]2Cc2cc(-n3nccn3)ccc2F)c1 [Example 115, [(2R,5R)-5-(2-Fluoro-5-[1,2,3]triazol-2-yl-benzyl)-2-methyl-morpholin-4-yl]-(5-methyl-2-[1,2,3]triazol-2-yl-phenyl)-methanone] | – | 146 nM | 24000 nM | 2 nM | –
11 | Cc1ccc(C(=O)N2C[C@@H](C)OC[C@H]2Cc2cc(-n3nccn3)ccc2F)c(-n2nccn2)c1 [Example 117, [(2R,5R)-5-(2-Fluoro-5-[1,2,3]triazol-2-yl-benzyl)-2-methyl-morpholin-4-yl]-(4-methyl-2-[1,2,3]triazol-2-yl-phenyl)-methanone] | – | 107 nM | 23000 nM | 5 nM | –
12 | Cc1cccc(C(=O)N2C[C@@H](C)OC[C@H]2Cc2cc(-n3nccn3)ccc2F)c1-n1nccn1 [Example 118, [(2R,5R)-5-(2-Fluoro-5-[1,2,3]triazol-2-yl-benzyl)-2-methyl-morpholin-4-yl]-(3-methyl-2-[1,2,3]triazol-2-yl-phenyl)-methanone] | – | 728 nM | 23000 nM | 10 nM | –
13 | Cc1ccc(-n2nccn2)c(C(=O)N2CCOC[C@H]2Cc2cc(-n3nccn3)ccc2C)c1 [Example 119, [(R)-3-(2-Methyl-5-[1,2,3]triazol-2-yl-benzyl)-morpholin-4-yl]-(5-methyl-2-[1,2,3]triazol-2-yl-phenyl)-methanone] | – | 593 nM | 19000 nM | 6 nM | –
14 | Cc1ccc(-n2nccn2)cc1C[C@@H]1COCCN1C(=O)c1ccccc1-n1nccn1 [Example 121, [(R)-3-(2-Methyl-5-[1,2,3]triazol-2-yl-benzyl)-morpholin-4-yl]-(2-[1,2,3]triazol-2-yl-phenyl)-methanone] | – | 1640 nM | 18000 nM | 26 nM | –
15 | Cc1cccc(C(=O)N2CCOC[C@H]2Cc2cc(-n3nccn3)ccc2Cl)c1-n1nccn1 [Example 122, [(R)-3-(2-Chloro-5-[1,2,3]triazol-2-yl-benzyl)-morpholin-4-yl]-(3-methyl-2-[1,2,3]triazol-2-yl-phenyl)-methanone] | – | 1610 nM | 18000 nM | 6 nM | –
16 | Cc1ccc(C(=O)N2CCOC[C@H]2Cc2cc(-n3nccn3)ccc2C)c(-n2nccn2)c1 [Example 123, [(R)-3-(2-Methyl-5-[1,2,3]triazol-2-yl-benzyl)-morpholin-4-yl]-(4-methyl-2-[1,2,3]triazol-2-yl-phenyl)-methanone] | 5 nM | – | 27000 nM | – | 939 nM
17 | Cc1ccc(-n2nccn2)cc1C[C@@H]1COCCN1C(=O)c1cccc(C)c1-n1nccn1 [Example 124, [(R)-3-(2-Methyl-5-[1,2,3]triazol-2-yl-benzyl)-morpholin-4-yl]-(3-methyl-2-[1,2,3]triazol-2-yl-phenyl)-methanone] | – | 997 nM | 22000 nM | 9 nM | –
18 | Cc1ccc(-n2nccn2)c(C(=O)N2CCOC[C@H]2Cc2cc(-n3nccn3)ccc2Cl)c1 [Example 125, [(R)-3-(2-Chloro-5-[1,2,3]triazol-2-yl-benzyl)-morpholin-4-yl]-(5-methyl-2-[1,2,3]triazol-2-yl-phenyl)-methanone] | – | 626 nM | 22000 nM | 7 nM | –
19 | O=C(c1ccccc1-n1nccn1)N1CCOC[C@H]1Cc1cc(-n2nccn2)ccc1Cl [Example 126, [(R)-3-(2-Chloro-5-[1,2,3]triazol-2-yl-benzyl)-morpholin-4-yl]-(2-[1,2,3]triazol-2-yl-phenyl)-methanone] | – | 1480 nM | 17000 nM | 40 nM | –
20 | Cc1cccc(C(=O)N2CCOC[C@H]2Cc2cc(-n3nccn3)ccc2F)c1-n1nccn1 [Example 127, [(R)-3-(2-Fluoro-5-[1,2,3]triazol-2-yl-benzyl)-morpholin-4-yl]-(3-methyl-2-[1,2,3]triazol-2-yl-phenyl)-methanone] | – | 1500 nM | 30000 nM | 26 nM | –
21 | O=C(c1cc(Cl)ccc1-n1nccn1)N1CCOC[C@H]1Cc1cc(-n2nccn2)ccc1F [Example 129, (5-Chloro-2-[1,2,3]triazol-2-yl-phenyl)-[(R)-3-(2-fluoro-5-[1,2,3]triazol-2-yl-benzyl)-morpholin-4-yl]-methanone] | – | 188 nM | 26000 nM | 12 nM | –
22 | COc1ccc(-n2nccn2)c(C(=O)N2CCOC[C@H]2Cc2cc(-n3nccn3)ccc2F)c1 [Example 131, [(R)-3-(2-Fluoro-5-[1,2,3]triazol-2-yl-benzyl)-morpholin-4-yl]-(5-methoxy-2-[1,2,3]triazol-2-yl-phenyl)-methanone] | – | 1130 nM | 35000 nM | 4 nM | –
23 | Cc1ccc(-n2nccn2)c(C(=O)N2CCOC[C@H]2Cc2cc(-n3nccn3)ccc2F)c1F [Example 132, (2-Fluoro-3-methyl-6-[1,2,3]triazol-2-yl-phenyl)-[(R)-3-(2-fluoro-5-[1,2,3]triazol-2-yl-benzyl)-morpholin-4-yl]-methanone] | – | 1170 nM | 19000 nM | 8 nM | –
24 | COc1ccc(-n2nccn2)c(C(=O)N2CCOC[C@H]2Cc2cc(-n3nccn3)ccc2F)c1F [Example 133, (2-Fluoro-3-methoxy-6-[1,2,3]triazol-2-yl-phenyl)-[(R)-3-(2-fluoro-5-[1,2,3]triazol-2-yl-benzyl)-morpholin-4-yl]-methanone] | – | 2600 nM | 37000 nM | 22 nM | –
25 | COc1cc(C(=O)N2CCOC[C@H]2Cc2cc(-n3nccn3)ccc2F)c(-n2nccn2)cc1C [Example 134, [(R)-3-(2-Fluoro-5-[1,2,3]triazol-2-yl-benzyl)-morpholin-4-yl]-(5-methoxy-4-methyl-2-[1,2,3]triazol-2-yl-phenyl)-methanone] | – | 336 nM | 19000 nM | 11 nM | –
26 | O=C(c1cccc(Cl)c1-n1nccn1)N1CCOC[C@H]1Cc1cc(-n2nccn2)ccc1F [Example 135, (3-Chloro-2-[1,2,3]triazol-2-yl-phenyl)-[(R)-3-(2-fluoro-5-[1,2,3]triazol-2-yl-benzyl)-morpholin-4-yl]-methanone] | – | 1880 nM | 30000 nM | 16 nM | –
